Assay: Stability test of crystal forms (40±2° C., RH 75±5%, 3 months)
Type: physicochemical
Details: for Crystal appearance / Melting point / Purity / Specific optical rotation: stability test
Protocol: The crystal forms obtained in Examples 2 to 4 were placed under an environment having a temperature of 40±2° C. and a humidity of RH 75±5% for 3 months. The melting point, specific optical rotation, purity and crystal appearance were measured on 0 day, 1-month, 2-month and 3-month, respectively.

[1] = 3 months, conclusion from Table 2

For `CCC(=O)O[C@H]1CC[C@@]2(C)C(=CC[C@@H]3[C@@H]2CC[C@]2(C)C(c4cccnc4)=CC[C@@H]32)C1` [Example 2, (3β)-17-(3-pyridyl)-androstane-5,16-dien-3-ol propionate], the Crystal appearance (0 month) was “No change”, the Melting point (0 month) was 109.5~110.4 °C and the Purity (0 month) was 99.88. For the same compound, the Specific optical rotation (0 month) was −44.32°, the Crystal appearance (1 month) was “No change” and the Melting point (1 month) was 109.4~110.3 °C. For the same compound, the Purity (1 month) was 99.86, the Specific optical rotation (1 month) was −44.06° and the Crystal appearance (2 months) was “No change”. The Melting point (2 months) was 109.4~110.5 °C, the Purity (2 months) was 99.82 and the Specific optical rotation (2 months) was −43.67°. For the same compound, the Crystal appearance (3 months) was “No change”, the Melting point (3 months) was 109.8~110.5 °C and the Purity (3 months) was 99.81. For the same compound, the Specific optical rotation (3 months) was −44.23°.
In the case of `CCC(=O)O[C@H]1CC[C@@]2(C)C(=CC[C@@H]3[C@@H]2CC[C@]2(C)C(c4cccnc4)=CC[C@@H]32)C1` [Example 3, (3β)-17-(3-pyridyl)-androstane-5,16-dien-3-ol propionate], the Crystal appearance (0 month) is reported as “No change”, the Melting point (0 month) is reported as 109.7~110.6 °C and the Purity (0 month) is reported as 99.89. The Specific optical rotation (0 month) was −44.34°, the Crystal appearance (1 month) was “No change” and the Melting point (1 month) was 109.4~110.4 °C. For the same compound, the Purity (1 month) was 99.87, the Specific optical rotation (1 month) was −44.21° and the Crystal appearance (2 months) was “No change”. The Melting point (2 months) was 109.5~110.0 °C, the Purity (2 months) was 99.84 and the Specific optical rotation (2 months) was −44.05°. For the same compound, the Crystal appearance (3 months) was “No change”, the Melting point (3 months) was 109.8~110.6 °C and the Purity (3 months) was 99.82. For the same compound, the Specific optical rotation (3 months) was −43.99°.
In the case of `CCC(=O)O[C@H]1CC[C@@]2(C)C(=CC[C@@H]3[C@@H]2CC[C@]2(C)C(c4cccnc4)=CC[C@@H]32)C1` [Example 4, (3β)-17-(3-pyridyl)-androstane-5,16-dien-3-ol propionate], the Crystal appearance (0 month) is reported as “No change”, the Melting point (0 month) is reported as 109.6~110.5 °C and the Purity (0 month) is reported as 99.86. For the same compound, the Specific optical rotation (0 month) was −44.46°, the Crystal appearance (1 month) was “No change” and the Melting point (1 month) was 109.4~110.4 °C. The Purity (1 month) was 99.83, the Specific optical rotation (1 month) was −44.13° and the Crystal appearance (2 months) was “No change”. For the same compound, the Melting point (2 months) was 109.5~110.7 °C, the Purity (2 months) was 99.81 and the Specific optical rotation (2 months) was −44.08°. The Crystal appearance (3 months) was “No change”, the Melting point (3 months) was 109.7~110.6 °C and the Purity (3 months) was 99.79. The Specific optical rotation (3 months) was −43.92°.
In the case of `CCC(=O)O[C@H]1CC[C@@]2(C)C(=CC[C@@H]3[C@@H]2CC[C@]2(C)C(c4cccnc4)=CC[C@@H]32)C1` [crystal form of Abiraterone propionate, (3β)-17-(3-pyridyl)-androstane-5,16-dien-3-ol propionate], the Crystal transformation [1] is reported as “no crystal transformation occurred” and the Stability [1] is reported as “good stability”.
